Common to all, as to assay type: functional, cell-based
Series [1] addresses T1, Bile salt export pump (Mus musculus, UniProt Q9QY30).
T1 sequence (Q9QY30 whole entry): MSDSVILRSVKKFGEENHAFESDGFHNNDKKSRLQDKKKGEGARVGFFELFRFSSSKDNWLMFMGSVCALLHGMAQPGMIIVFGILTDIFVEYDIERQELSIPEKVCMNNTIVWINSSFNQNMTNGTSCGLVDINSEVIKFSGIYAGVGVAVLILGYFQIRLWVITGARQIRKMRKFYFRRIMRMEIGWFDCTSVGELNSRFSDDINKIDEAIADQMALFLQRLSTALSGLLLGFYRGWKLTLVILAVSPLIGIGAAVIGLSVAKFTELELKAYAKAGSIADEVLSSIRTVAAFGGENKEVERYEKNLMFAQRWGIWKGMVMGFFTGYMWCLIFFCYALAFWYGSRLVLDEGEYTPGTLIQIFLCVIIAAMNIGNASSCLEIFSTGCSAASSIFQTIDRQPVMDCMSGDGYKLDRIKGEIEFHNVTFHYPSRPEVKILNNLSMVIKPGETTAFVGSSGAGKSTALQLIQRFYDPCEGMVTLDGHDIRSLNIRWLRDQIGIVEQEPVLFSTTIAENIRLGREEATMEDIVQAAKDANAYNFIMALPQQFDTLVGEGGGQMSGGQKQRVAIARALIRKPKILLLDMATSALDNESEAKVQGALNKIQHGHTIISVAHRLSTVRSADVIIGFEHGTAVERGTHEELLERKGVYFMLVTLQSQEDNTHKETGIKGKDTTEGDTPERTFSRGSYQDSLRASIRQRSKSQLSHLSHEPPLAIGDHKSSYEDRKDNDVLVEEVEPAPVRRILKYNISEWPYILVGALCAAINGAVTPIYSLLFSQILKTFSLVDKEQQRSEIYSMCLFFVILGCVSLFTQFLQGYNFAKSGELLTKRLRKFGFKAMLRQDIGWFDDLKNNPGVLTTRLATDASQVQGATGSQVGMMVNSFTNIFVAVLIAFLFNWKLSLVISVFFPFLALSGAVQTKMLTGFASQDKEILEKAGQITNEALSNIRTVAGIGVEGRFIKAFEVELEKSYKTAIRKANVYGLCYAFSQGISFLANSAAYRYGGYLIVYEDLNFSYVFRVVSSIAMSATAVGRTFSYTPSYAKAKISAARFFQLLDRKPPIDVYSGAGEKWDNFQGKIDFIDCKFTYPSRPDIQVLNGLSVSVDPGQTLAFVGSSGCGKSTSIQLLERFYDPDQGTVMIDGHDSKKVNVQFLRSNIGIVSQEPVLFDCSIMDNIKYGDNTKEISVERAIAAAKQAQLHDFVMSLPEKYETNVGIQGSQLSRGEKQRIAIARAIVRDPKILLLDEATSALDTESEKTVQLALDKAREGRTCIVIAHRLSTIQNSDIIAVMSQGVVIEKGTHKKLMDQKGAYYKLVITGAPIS
Description: (§1) TP_TRANSPORTER: intracellular accumulation in Bsep-expressing LLC-PK1 cells. The following applies: pig.

For series [2], the target named is T2, ATP-dependent translocase ABCB1 (Homo sapiens, UniProt P08183). The series can be described thus: (§2) TP_TRANSPORTER: intracellular accumulation in MDR1-expressing LLC-PK1 cells. The note with it: pig.
Series [3] has as its target T2, ATP-dependent translocase ABCB1. Description: TP_TRANSPORTER: increase in Calcein-AM intracellular accumulation (Calcein-AM: 1 uM, Ditekiren: 20 uM) in MDR1-expressing LLC-PK1 cells. The note with it: pig, llc-pk1, 20 µM.
In series [4] the target is T1, Bile salt export pump. Description: TP_TRANSPORTER: increase in Calcein-AM intracellular accumulation (Calcein-AM: 1 uM, Ditekiren: 20 uM) in Bsep-expressing LLC-PK1 cells. The note with it: pig, llc-pk1, 20 µM.
Series [5] concerns CC[C@]1(O)C[C@@H]2CN(CCc3c([nH]c4ccccc34)[C@@](C(=O)OC)(c3cc4c(cc3OC)N(C)[C@H]3[C@@](O)(C(=O)OC)[C@H](OC(C)=O)[C@]5(CC)C=CCN6CC[C@]43[C@@H]65)C2)C1. The description is as §2.
Series [6] concerns the target T1, Bile salt export pump. The series can be described thus: TP_TRANSPORTER: increase in Calcein-AM intracellular accumulation (Calcein-AM: 1 uM, Reserpine: 20 uM) in Bsep-expressing LLC-PK1 cells. The following applies: pig, llc-pk1, 20 µM.
Substrate in series [7]: CC[C@]1(O)C[C@@H]2CN(CCc3c([nH]c4ccccc34)[C@@](C(=O)OC)(c3cc4c(cc3OC)N(C)[C@H]3[C@@](O)(C(=O)OC)[C@H](OC(C)=O)[C@]5(CC)C=CCN6CC[C@]43[C@@H]65)C2)C1
The description is as §1.

T2 sequence (P08183 whole entry): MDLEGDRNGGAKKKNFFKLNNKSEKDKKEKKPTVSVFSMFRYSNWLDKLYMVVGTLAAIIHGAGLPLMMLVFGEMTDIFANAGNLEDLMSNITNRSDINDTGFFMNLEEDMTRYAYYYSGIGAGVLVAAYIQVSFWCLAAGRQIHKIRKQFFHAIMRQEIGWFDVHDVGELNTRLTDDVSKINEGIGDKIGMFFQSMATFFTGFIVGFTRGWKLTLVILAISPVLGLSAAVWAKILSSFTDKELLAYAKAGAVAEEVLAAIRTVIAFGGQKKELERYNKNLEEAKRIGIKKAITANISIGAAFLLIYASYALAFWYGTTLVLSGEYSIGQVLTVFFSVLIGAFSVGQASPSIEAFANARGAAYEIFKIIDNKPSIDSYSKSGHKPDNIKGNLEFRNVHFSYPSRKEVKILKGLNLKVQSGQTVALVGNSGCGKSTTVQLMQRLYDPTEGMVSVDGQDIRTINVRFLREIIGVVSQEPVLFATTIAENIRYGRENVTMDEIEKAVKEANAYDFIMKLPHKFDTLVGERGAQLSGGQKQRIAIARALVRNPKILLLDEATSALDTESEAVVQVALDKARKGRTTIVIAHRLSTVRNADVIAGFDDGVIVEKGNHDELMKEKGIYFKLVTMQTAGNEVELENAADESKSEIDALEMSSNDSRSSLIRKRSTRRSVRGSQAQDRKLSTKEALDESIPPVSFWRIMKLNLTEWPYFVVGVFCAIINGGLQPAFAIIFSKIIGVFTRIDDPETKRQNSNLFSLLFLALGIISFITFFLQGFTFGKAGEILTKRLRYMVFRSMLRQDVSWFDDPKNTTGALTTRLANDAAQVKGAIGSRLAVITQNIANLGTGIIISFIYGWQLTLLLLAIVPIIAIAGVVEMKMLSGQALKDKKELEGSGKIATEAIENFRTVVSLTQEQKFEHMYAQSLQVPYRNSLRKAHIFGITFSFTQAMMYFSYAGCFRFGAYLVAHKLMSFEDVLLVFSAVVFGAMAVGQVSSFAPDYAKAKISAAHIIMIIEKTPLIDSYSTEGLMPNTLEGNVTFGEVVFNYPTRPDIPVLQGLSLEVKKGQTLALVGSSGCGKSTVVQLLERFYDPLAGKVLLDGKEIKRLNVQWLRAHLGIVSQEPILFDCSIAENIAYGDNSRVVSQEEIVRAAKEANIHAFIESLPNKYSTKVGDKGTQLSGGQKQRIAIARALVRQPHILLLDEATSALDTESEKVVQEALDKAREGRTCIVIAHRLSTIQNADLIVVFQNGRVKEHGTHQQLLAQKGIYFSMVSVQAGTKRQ

Regarding `C[C@H]1O[C@@H](O[C@H]2[C@@H](O)C[C@H](O[C@H]3[C@@H](O)C[C@H](O[C@H]4CC[C@@]5(C)[C@H](CC[C@@H]6[C@@H]5C[C@@H](O)[C@]5(C)[C@@H](C7=CC(=O)OC7)CC[C@]65O)C4)O[C@@H]3C)O[C@@H]2C)C[C@H](O)[C@@H]1O` [DIGOXIN], the Activity result in series [1] is “is not a substrate [-]”.

With `COC(=O)c1ccccc1-c1c2ccc(=N)cc-2oc2cc(N)ccc12.Cl` [RHODAMINE123], the values for the Activity result in series [2] and in series [1] were “substrate [+]” and “is not a substrate [-]”, respectively.

Regarding `CC[C@H](C)[C@H](NC(=O)[C@@H](C[C@H](O)[C@H](CC(C)C)NC(=O)[C@H](Cc1c[nH]cn1)N(C)C(=O)[C@H](Cc1ccccc1)NC(=O)[C@@H]1CCCN1C(=O)OC(C)(C)C)C(C)C)C(=O)NCc1ccccn1`, the Activity result in series [3] was “is not an inhibitor [-]”; in series [4], “inhibitor [+]”.

As for `CC(=O)OCOC(=O)CN(CC(=O)OCOC(C)=O)Cc1c(OC(C)=O)ccc2c1Oc1c(ccc(OC(C)=O)c1CN(CC(=O)OCOC(C)=O)CC(=O)OCOC(C)=O)C21OC(=O)c2ccccc21`, the Activity result in series [2] and in series [1] was “substrate [+]” each time.

As a reminder, the Km is the substrate concentration at which the rate is half of its maximum. Take “ATP-dependent translocase ABCB1 (Homo sapiens)”: in series [5], the Michaelis-Menten constant (Km) came out at 99.4 µM.

As for `COC(=O)[C@H]1[C@H]2C[C@@H]3c4[nH]c5cc(OC)ccc5c4CCN3C[C@H]2C[C@@H](OC(=O)c2cc(OC)c(OC)c(OC)c2)[C@@H]1OC` [RESERPINE], the Activity result in series [6] was “inhibitor [+]”.

Consider `CC[C@]1(O)C[C@H]2CN(CCc3c([nH]c4ccccc34)[C@@](C(=O)OC)(c3cc4c(cc3OC)N(C=O)[C@H]3[C@@](O)(C(=O)OC)[C@H](OC(C)=O)[C@]5(CC)C=CCN6CC[C@]43[C@@H]65)C2)C1` [VINCRISTINE], for which the Activity entry was “substrate [+]” in series [2] and “is not a substrate [-]” in series [1].

Take `COc1cccc2c1C(=O)c1c(O)c3c(c(O)c1C2=O)C[C@@](O)(C(C)=O)C[C@@H]3O[C@H]1C[C@H](N)[C@H](O)[C@H](C)O1` [DAUNORUBICIN]: the Activity result was “substrate [+]” in series [2] and “is not a substrate [-]” in series [1].

For `CC(=O)O[C@H]1C(=O)[C@@]2(C)[C@H]([C@H](OC(=O)c3ccccc3)[C@]3(O)C[C@H](OC(=O)[C@H](O)[C@@H](NC(=O)c4ccccc4)c4ccccc4)C(C)=C1C3(C)C)[C@]1(OC(C)=O)CO[C@@H]1C[C@@H]2O` [PACLITAXEL], the Activity entry in series [2] is “substrate [+]”; in series [1], “is not a substrate [-]”.

B1: Bile salt export pump (Mus musculus) (protein)
chain: MSDSVILRSVKKFGEENHAFESDGFHNNDKKSRLQDKKKGEGARVGFFELFRFSSSKDNWLMFMGSVCALLHGMAQPGMIIVFGILTDIFVEYDIERQELSIPEKVCMNNTIVWINSSFNQNMTNGTSCGLVDINSEVIKFSGIYAGVGVAVLILGYFQIRLWVITGARQIRKMRKFYFRRIMRMEIGWFDCTSVGELNSRFSDDINKIDEAIADQMALFLQRLSTALSGLLLGFYRGWKLTLVILAVSPLIGIGAAVIGLSVAKFTELELKAYAKAGSIADEVLSSIRTVAAFGGENKEVERYEKNLMFAQRWGIWKGMVMGFFTGYMWCLIFFCYALAFWYGSRLVLDEGEYTPGTLIQIFLCVIIAAMNIGNASSCLEIFSTGCSAASSIFQTIDRQPVMDCMSGDGYKLDRIKGEIEFHNVTFHYPSRPEVKILNNLSMVIKPGETTAFVGSSGAGKSTALQLIQRFYDPCEGMVTLDGHDIRSLNIRWLRDQIGIVEQEPVLFSTTIAENIRLGREEATMEDIVQAAKDANAYNFIMALPQQFDTLVGEGGGQMSGGQKQRVAIARALIRKPKILLLDMATSALDNESEAKVQGALNKIQHGHTIISVAHRLSTVRSADVIIGFEHGTAVERGTHEELLERKGVYFMLVTLQSQEDNTHKETGIKGKDTTEGDTPERTFSRGSYQDSLRASIRQRSKSQLSHLSHEPPLAIGDHKSSYEDRKDNDVLVEEVEPAPVRRILKYNISEWPYILVGALCAAINGAVTPIYSLLFSQILKTFSLVDKEQQRSEIYSMCLFFVILGCVSLFTQFLQGYNFAKSGELLTKRLRKFGFKAMLRQDIGWFDDLKNNPGVLTTRLATDASQVQGATGSQVGMMVNSFTNIFVAVLIAFLFNWKLSLVISVFFPFLALSGAVQTKMLTGFASQDKEILEKAGQITNEALSNIRTVAGIGVEGRFIKAFEVELEKSYKTAIRKANVYGLCYAFSQGISFLANSAAYRYGGYLIVYEDLNFSYVFRVVSSIAMSATAVGRTFSYTPSYAKAKISAARFFQLLDRKPPIDVYSGAGEKWDNFQGKIDFIDCKFTYPSRPDIQVLNGLSVSVDPGQTLAFVGSSGCGKSTSIQLLERFYDPDQGTVMIDGHDSKKVNVQFLRSNIGIVSQEPVLFDCSIMDNIKYGDNTKEISVERAIAAAKQAQLHDFVMSLPEKYETNVGIQGSQLSRGEKQRIAIARAIVRDPKILLLDEATSALDTESEKTVQLALDKAREGRTCIVIAHRLSTIQNSDIIAVMSQGVVIEKGTHKKLMDQKGAYYKLVITGAPIS
With B1, the Km in series [7] is 38.3 µM.
